Calls of active or inactive are those of the source. No cut-off for these calls is given here.
Tests used:
MDA-MB-231 [1] = assay: Induction of cell cycle arrest in human MDA-MB-231 cells assessed as accumulation of cells at G2/M phase at 2 uM incubated for 24 hrs by RNase/PI staining based flow cytometry (reference value: 11.3 %); format: functional
4T1 [2] = assay: Antitumor immunity against mouse 4T1 cells implanted in BALB/c mouse assessed as increase in proportion of CD4+ T cells in tumor at 10 mg/kg,ip every other day for 14 days by flow cytometry; format: functional, organism-based; conditions: time 14.0 day
4T1 [3] = assay: Antitumor activity against mouse 4T1 cells implanted in BALB/c mouse assessed as upregulation of gamma-H2AX expression in tumor at 10 mg/kg,ip every other day for 14 days by immunohistochemistry; format: functional, organism-based; conditions: time 14.0 day
[4] = Toxicity in BALB/c mouse implanted with mouse 4T1 cells assessed as histopathological change in lung at 10 mg/kg,ip every other day for 14 days by hematoxylin and eosin staining analysis; format: organism-based; conditions: in vivo, 336 h, time 14 day
MDA-MB-231 [5] = assay: Induction of DNA damage in human MDA-MB-231 cells assessed as upregulation of CHK2 phosphorylation at 4 uM by Western blot analysis; format: functional, cell-based; conditions: TDE = time-dependent effect
MCF7 = assay: Cytotoxicity against human MCF7 cells incubated for 24 hrs by CCK-8 reagent based spectrophotometric analysis; format: functional, cell-based; conditions: MCF7, 24 h
MDA-MB-231 [6] = assay: Induction of apoptosis in human MDA-MB-231 cells assessed as upregulation of cleaved PARP expression at 1 to 4 uM incubated for 24 hrs by Western blot analysis; format: functional, cell-based; conditions: dose 1-4 µM
[7] = Cytotoxicity against human MCF-10A cells incubated for 24 hrs by CCK-8 reagent based spectrophotometric analysis; format: toxicity, cell-based
4T1 [8] = assay: Antitumor activity against mouse 4T1 cells implanted in BALB/c mouse assessed as upregulation of cleaved PARP expression in tumor at 10 mg/kg,ip every other day for 14 days by Western blot analysis; format: functional, organism-based; conditions: time 14.0 day
Quadruplex DNA [9] = assay: Stabilization of G-quadruplex telomeric24 DNA (unknown origin) at 10 uM incubated for 40 mins by replication based ethidium bromide staining based gel electrophoresis; format: nucleic-acid assay
DNA [10] = assay: Binding affinity to DNA (unknown origin) assessed as dissociation constant by Benesi-Hildebrand equation based analysis; format: nucleic-acid assay
4T1 [11] = assay: Antitumor immunity against mouse 4T1 cells implanted in BALB/c mouse assessed as increase in serum IL-6 level at 10 mg/kg,ip every other day for 14 days by ELISA; format: functional, organism-based; conditions: time 14.0 day
MDA-MB-231 [12] = assay: Induction of DNA damage in human MDA-MB-231 cells assessed as increase in gamma-H2AX level in nucleus at 3 uM incubated for 24 hrs by DAPI staining based immunofluorescence analysis; format: functional, cell-based
[13] = Toxicity in BALB/c mouse implanted with mouse 4T1 cells assessed as histopathological change in liver at 10 mg/kg,ip every other day for 14 days by hematoxylin and eosin staining analysis; format: organism-based; conditions: in vivo, 336 h, time 14 day
MDA-MB-231 [14] = assay: Induction of cell cycle arrest in human MDA-MB-231 cells assessed as accumulation of cells at G2/M phase at 4 uM incubated for 24 hrs by RNase/PI staining based flow cytometry (reference value: 11.3 %); format: functional
MDA-MB-231 [15] = assay: Induction of cell cycle arrest in human MDA-MB-231 cells assessed as accumulation of cells at S phase at 4 uM incubated for 24 hrs by RNase/PI staining based flow cytometry (reference value: 6.3 %); format: functional
4T1 [16] = assay: Antitumor immunity against mouse 4T1 cells implanted in BALB/c mouse assessed as increase in serum TNF-alpha level at 10 mg/kg,ip every other day for 14 days by ELISA; format: functional, organism-based; conditions: time 14.0 day
DNA [17] = assay: Binding affinity to Hairpin DNA (unknown origin) assessed as thermal shift at 10 uM by UV-Visible spectrophotometric analysis; format: nucleic-acid assay
[18] = Toxicity in BALB/c mouse implanted with mouse 4T1 cells assessed as histopathological change in kidney at 10 mg/kg,ip every other day for 14 days by hematoxylin and eosin staining analysis; format: organism-based; conditions: in vivo, 336 h, time 14 day
Quadruplex DNA [19] = assay: Stabilization of G-quadruplex telomeric DNA in human MDA-MB-231 cells assessed as increase in BG4-positive cell nuclei at 3 uM incubated for 24 hrs by DAPI staining based immunofluorescence microscopic analysis
MDA-MB-231 [20] = assay: Induction of cell cycle arrest in human MDA-MB-231 cells assessed as accumulation of cells at S phase at 1 uM incubated for 24 hrs by RNase/PI staining based flow cytometry (reference value: 6.3 %); format: functional
4T1 [21] = assay: Antitumor activity against mouse 4T1 cells implanted in BALB/c mouse assessed as reduction in tumor weight at 10 mg/kg,ip every other day for 14 days; format: functional, organism-based; conditions: time 14.0 day
MDA-MB-231 [22] = assay: Induction of cell cycle arrest in human MDA-MB-231 cells assessed as accumulation of cells at G2/M phase at 1 uM incubated for 24 hrs by RNase/PI staining based flow cytometry (reference value: 11.3 %); format: functional
MDA-MB-231 [23] = assay: Antiproliferative activity against human MDA-MB-231 cells assessed as reduction in tumor spheroid volume at 20 to 40 uM incubated for 7 days by propidium iodide staining based fluorescence analysis; format: functional, cell-based; conditions: dose 20-40 µM, time 7.0 day
[24] = Drug uptake in human MDA-MB-231 cells assessed as increase in fluorescence intensity in tumor spheroid incubated for 24 hrs; format: ADME, cell-based; conditions: mda-mb-231, 24 h
Quadruplex DNA [25] = assay: Binding affinity to G-quadruplex telomeric DNA (unknown origin) assessed as thermal shift at 10 uM by UV-Visible spectrophotometric analysis; format: nucleic-acid assay
MDA-MB-231 [26] = assay: Induction of cell cycle arrest in human MDA-MB-231 cells assessed as accumulation of cells at G0/G1 phase at 1 uM incubated for 24 hrs by RNase/PI staining based flow cytometry (reference value: 82.3 %); format: functional
MDA-MB-231 [27] = assay: Antiproliferative activity against human MDA-MB-231 cells assessed as reduction in tumor spheroid volume at 10 uM incubated for 7 days by propidium iodide staining based fluorescence analysis; format: functional, cell-based; conditions: time 7.0 day
MDA-MB-231 [28] = assay: Induction of DNA damage in human MDA-MB-231 cells assessed as upregulation of gamma-H2AX expression at 1 to 4 uM incubated for 24 hrs by Western blot analysis; format: functional, cell-based; conditions: dose 1-4 µM
4T1 [29] = assay: Antitumor activity against mouse 4T1 cells implanted in BALB/c mouse assessed as increase in survival time at 10 mg/kg,ip every other day for 14 days; format: functional, organism-based; conditions: time 14.0 day
4T1 [30] = assay: Antitumor immunity against mouse 4T1 cells implanted in BALB/c mouse assessed as increase in proportion of CD8+ T cells in tumor at 10 mg/kg,ip every other day for 14 days by immunohistochemistry staining based analysis; format: functional, organism-based; conditions: time 14.0 day
MDA-MB-231 [31] = assay: Induction of cell cycle arrest in human MDA-MB-231 cells assessed as downregulation of Cyclin B1 expression at 1 to 4 uM incubated for 24 hrs by Western blot analysis; format: functional, cell-based; conditions: dose 1-4 µM
MDA-MB-231 [32] = assay: Inhibition of cell migration in human MDA-MB-231 cells incubated for 48 hrs by wound scrape assay; format: functional, cell-based
MDA-MB-231 [33] = assay: Induction of immunogenic cell death in human MDA-MB-231 cells assessed as increase in HMGB1 release at 1 to 4 uM incubated for 24 hrs by ELISA; format: functional, cell-based; conditions: dose 1-4 µM
4T1 [34] = assay: Antitumor immunity against mouse 4T1 cells implanted in BALB/c mouse assessed as increase in proportion of CD8+ T cells in tumor at 10 mg/kg,ip every other day for 14 days by flow cytometry; format: functional, organism-based; conditions: time 14.0 day

For `CN(C)CCN(C)c1ccc(-c2nc3ccc(C(F)(F)F)cc3nc2-c2ccc(N(C)CCN(C)C)cc2)cc1`, the Activity (MDA-MB-231 [1]) was 11.5%, the Activity (4T1 [2]) was “Active” and the Activity (4T1 [3]) was “Active”. For the same compound, the Activity [4] was “Non-Toxic”, the Activity (MDA-MB-231 [5]) was “Tde” and the IC50 (MCF7) was 3.6 µM. The Activity (MDA-MB-231 [6]) was “Active”, the IC50 at 24 h [7] was 5.8 µM and the Activity (4T1 [8]) was “Active”. For the same compound, the Activity (Quadruplex DNA [9]) was “Active”, the Kd (DNA [10]) was 1.4 µM and the Activity (4T1 [11]) was “Active”. The Activity (MDA-MB-231 [12]) was “Active”, the Activity [13] was “Non-Toxic” and the Activity (MDA-MB-231 [14]) was 20.9%. For the same compound, the Activity (MDA-MB-231 [15]) was 8.6%, the Activity (4T1 [16]) was “Active” and the Activity (DNA [17]) was “inactive”. For the same compound, the Activity [18] was “Non-Toxic”, the Activity (Quadruplex DNA [19]) was “Active” and the Activity (MDA-MB-231 [20]) was 6.4%. For the same compound, the Activity (4T1 [21]) was “Active”, the Activity (MDA-MB-231 [22]) was 11.4% and the Activity (MDA-MB-231 [23]) was “Active”. The Drug uptake [24] was “Active”, the Activity (Quadruplex DNA [25]) was “Active” and the Activity (MDA-MB-231 [26]) was 82.1%. For the same compound, the Activity (MDA-MB-231 [27]) was “inactive”, the Activity (MDA-MB-231 [28]) was “Active” and the Activity (4T1 [29]) was “Active”. The Activity (4T1 [30]) was “Active”, the Activity (MDA-MB-231 [31]) was “Active” and the inhibition (MDA-MB-231 [32]) was “Dose-Dependent Effect”. The Activity (MDA-MB-231 [33]) was “Active” and the Activity (4T1 [34]) was “Active”.

— ChEMBL document CHEMBL5550165, “Novel quinoxaline analogs as telomeric G-quadruplex ligands exert antitumor effects related to enhanced immunomodulation” (Eur J Med Chem, 2024)
